Experimental findings from US10265378B2, “Combination therapy for head and neck cancer” (Cornell University, priority 2014, dated 2019) are described below.

The test system of data set [1] is tongue lesions (4-NQO induced oral cavity carcinogenesis). As to the kind of experiment: 4-NQO mouse oral cavity carcinogenesis model: gross tongue lesion number and severity.
The nature of data set [2]: Stability of CD1530 in drinking water by HPLC. The following applies: room temperature, final DMSO 0.8%. It counts as physicochemical. An excerpt:
FIG. 7. CD1530 is stable in the drinking water for at least 7 days at room temperature. CD1530 was first dissolved in 100% DMSO and subsequently diluted in the drinking water (the final concentration of DMSO was 0.8%). The same amounts of the freshly prepared CD1530 containing drinking water and the CD1530 containing water prepared 7 days earlier and stored at the room temperature were subjected to high-performance liquid chromatography (HPLC) analysis.
Drug treatments reduce tongue tumor development. All of the mice tolerated the 10 week 4-NQO treatment, and almost all of the mice survived the 15 week post 4-NQO treatment period (A). We determined that the CD1530 in the regular drinking water was stable for at least 7 days at room temperature by HPLC analysis (FIG. 7); thus, we decided to use drinking water as a delivery method because this method is effective and less laborious.

The test system of the next data set is MCT4. Kind of data set: Immunohistochemistry of tongue epithelium: MCT4. The following applies: compared to the 4-NQO group; antibody staining. The class given is in vivo, mouse. The text has this: (§1) The tongues were fixed, embedded in paraffin, and sectioned. Then the tissue sections were stained with various antibodies (magnification, 200×). Four to five representative areas of each tongue section from two to four mice/group were photographed and analyzed (FIGS. 12A and 12B). Interleukin-6 (IL-6) is a multifunctional cytokine that is involved in the regulation of immune responses and cellular functions. IL-6 levels are enhanced in human oral squamous cell carcinoma and IL-6 is considered a bad prognostic factor in this cancer (Expert Opin Ther Targets. 2013 January; 17(1):53-9). IL-6 protein was detected primarily in the basal layer of tongue epithelium in the UNT samples (FIG. 12A, arrows), but in the 4-NQO treated samples we observed both an increase in the protein level and an expansion of IL-6 signal to the suprabasal layers of the tongue epithelium (FIG. 12A).

In data set [3] the test system is 4-hydroxynonenal (4-HNE), marker of oxidative stress. Kind of data set: Immunohistochemistry of tongue epithelium: 4-HNE. It counts as in vivo, mouse. The following applies: compared to the 4-NQO group; antibody staining. The procedure:
Immunohistochemistry. Paraffin embedded tongue sections were stained with various antibodies (supporting information).
Immunohistochemistry. Paraffin-embedded sections (from two to four mice per group) were deparaffinized and rehydrated, and antigen retrieval was performed using an antigen unmasking solution (Vector Laboratories, H-3300). After quenching endogenous peroxidase with 3% H2O2, the tissue sections were blocked with the blocking reagent (from the M.O.M. kit from Vector Laboratories for 4-HNE) or 10% goat serum (Vector Laboratories). Then, tissue sections were incubated with a 4-HNE antibody (1:700; mouse monoclonal antibody; Abcam, ab48506), a β-catenin antibody (1:400; rabbit polyclonal antibody; Abcam, ab6302), or a MMP9 antibody (1:70; rabbit polyclonal antibody; Abcam, ab38898), respectively, overnight at 4° C. The sections were then incubated with secondary antibodies (1:200, anti-mouse IgG from the M.O.M kit for 4-1-INE; ready-to-use anti-rabbit IgG from the Invitrogen SuperPicture kit for β-catenin and MMP9). As a negative control, sections were stained without incubation with primary antibodies. The signals were visualized based on a peroxidase detection mechanism with 3,3-diaminobenzidine (DAB) used as the substrate. Four to five representative areas of each mouse tongue section from two to four mice per group were photographed and analyzed.

The next data set deals with IL-6. Kind of data set: Immunohistochemistry of tongue epithelium: IL-6. It counts as in vivo, mouse. Particulars: compared to the 4-NQO group; antibody staining.
Excerpt: as §1

In data set [4] the test system is mouse tongue mRNA transcriptome. Kind of data set: RNA-Seq analysis of the mRNA transcriptome of mouse tongues. The class given is in vivo. The procedure: RNA-Seq analysis of the mRNA transcriptome. One part of each mouse tongue (same position on each mouse tongue) was snap frozen in liquid N2 and stored at −70° C. until total RNA extraction. Total tissue RNA was extracted and subjected to Next-Generation Sequencing (RNA-Seq) at the Genomics Resources Core Facility, Weill Cornell Medical College. Bioinfomatics analyses were performed using the Tophat and Cufflink software. (supporting information).
RNA-Seq analysis of mRNA transcriptome. […] The GEO Accession number is GSE54246; embargoed until publication.

Where [5] appears, read: compared to the 4-NQO group, p<0.05.

For the compound `O=C(O)c1ccc(-c2ccc3cc(O)c(C45CC6CC(CC(C6)C4)C5)cc3c2)cc1` [CD1530], in data set [1] (C57BL/6 female mice, 4-NQO 10 weeks, then drug in 15 week post 4-NQO period, bexarotene 300 mg/kg diet, CD1530 […]100 ml drinking water, 4-NQO group 5.9±3.2), the “number of tongue lesions (gross tongue lesion multiplicity)” value was determined as 3.9±1.7. The “average severity of tongue lesions (grade 0-4)” value in data set [1] (same model, 4-NQO group 2.8±0.8) is given as 1.6±0.8. Besides, in data set [2], the “stable in the drinking water” value was “at least 7 days”. Besides, the “MCT4 protein levels in the tongue epithelium” value in the data set with MCT4 is reported as “lower MCT4 protein levels”. Besides, the “4-HNE levels in tongue samples” value in data set [3] was “lower”. Moreover, the “IL-6 protein levels in the tongue epithelium” value with IL-6 is on record as “lower IL-6 protein levels”. Besides, in data set [4] (compared to the 4-NQO group), the “transcript levels of DNA replication genes (MCM 2-7 and 10, DNA2, LIG1, ORC1, POLA1, PRIM2)” value is reported as “significantly lower transcript levels of the majority of these genes”. Also, in data set [4] (setting [5]), the “number of genes with decreased transcript levels” value stood at 531, the “number of genes with increased transcript levels” value is reported as 987 and the “number of genes with significantly different transcript levels” value is given as 1518. Besides, the “Cyp26a1 mRNA level” value in data set [4] (greater than in other groups, RARγ target gene) was “about 20 fold”.
